In one series the test system is db/db mice. As to the kind of experiment: Female db/db Mouse Assay, Study A: single dose part and dose response part (Example 14). The class given is in vivo. The text has this:
0.5% Hydroxypropyl Methylcellulose (Methocel) used as vehicle/control.
Db/db mice are susceptible to Type 2 diabetes. […] All of the mice were quarantined for a period of one week before transfer to the animal procedure room. A drop of blood (about 2 microliters) was collected by tail puncture and glucose concentration was detected with a glucometer (OneTouch UltraSmart, Lifescan, Milpitas, Calif.). […] Animals were separated and single housed at least three days prior to the drug treatments to allow acclimation to the new surroundings.
In the second, dose response part of Study A, 48 mice were allocated into 4 treatment groups of 12 mice each.
The dosing volume was 5 mL/kg body weight (0.2 mL for 40 gram mice). The mice were fed ad lib throughout the study. A necropsy was completed 18 hours after last dosing.
Blood glucose levels were measured from blood collected through tail puncture using a glucometer at 1000 hour. The mice were anaesthetized with sodium pentobarbital (1 ml/kg, intraperitoneal [i.p.] injection, SleepAway, Fort Dodge, Iowa) and blood was drawn via cardiac puncture using 1 mL syringe and collected into heparinized tubes. White adipose tissues (WAT) (retroperitoneal and inguinal fat pads), brown adipose tissure (BAT) and skeletal muscles (gastrocnemius and soleus muscle) and stomach contents were dissected and weighed. Plasma samples were obtained by centrifuging whole blood at 2000˜3000 g for 10˜20 minutes at 4° C. and stored at −20° C. for further measurement of insulin, HDL, LDL, total cholesterol and triglyceride.
Plasma insulin concentrations were measured by in both studies using the appropriate rat/mouse insulin enzyme-linked immunosorbent assay (ELISA) kit (EZRMI-13K, LINCO Research, St. Charles, Mo.). Blood samples were diluted 1:4 in charcoal stripped mouse serum that was included in the ELISA kit. The rest of the procedure followed the manufacturers instruction. The total fluorescence was detected using an Orion 1 Microplate Luminometer (Berthold Detection Systems, Pforzheim, Germany).
According to manufacturers protocol, cholesterol measurement was an enzymatic method utilizing cholesterol esterase and cholesterol oxidase conversion followed by a Trinder endpoint; Elimination/catalase method was used for HDL measurement; an enzymatic method with a Trinder endpoint was used for triglyceride measurement.
Data from both parts of the Study (single dose and dose response) was analyzed using the standard two-tailed Student's t-test and are expressed below as means and standard errors.

The mark [1] stands for this setting: single dose part, rosiglitazone 20 mg/kg.
Where [2] appears, read: single dose part, rosiglitazone 20 mg/kg positive control.
Setting [3] is: single dose part, rosiglitazone 20 mg/kg, plasma.

The values that follow come from US8497298B2, “Use of benzo-fused heterocycle sulfamide derivatives for lowering lipids and lowering blood glucose levels” (Janssen Pharmaceutica NV, priority 2005, dated 2013).

Each structure is given as a SMILES string.

`CN(CCOc1ccc(CC2SC(=O)NC2=O)cc1)c1ccccn1` (centres unmarked) [Rosiglitazone, rosiglitazone, reference compound]: the “total cholesterol concentrations elevated relative to vehicle” value in the series on db/db mice (rosiglitazone, dose not given) came to 35.1%. Moreover, in the series with db/db mice (setting [1]), the “Brown Adipose Tissue” value is reported as 0.32 ± 0.02 g, the “Final weight Body weight” value came to 43 ± 1.0 g, the “Final weight Stomach contents” value amounted to 0.32 ± 0.04 g and the Inguinal fat was found to be 2.44 ± 0.11 g. Moreover, in the series with db/db mice (setting [1]), the Muscle came to 0.154 ± 0.00 g, the Retroperitoneal fat stood at 1.45 ± 0.10 g, the “Total chow consumption Day 1-3” value is 21 ± 0.8 g and the “Total chow consumption Day 4-6” value is 22 ± 0.9 g. In addition, in the series with db/db mice (setting [1]), the “Total chow consumption Day 7-9” value is reported as 19 ± 0.7 g. Also, in the series on db/db mice (setting [2]), the Glucose amounted to 170 ± 23 mg/dL and the Insulin turned out to be 11.2 ± 2.3 ng/mL. Also, in the series on db/db mice (setting [3]), the Cholesterol stood at 123 ± 8 mg/dL, the HDL is on record as 62.5 ± 3.2 mg/dL, the LDL was 3.3 ± 0.3 mg/dL and the “Ratio (Triglyceride to HDL)” value is reported as 1.6 ± 0.3. The same compound came in with a Triglyceride in the series on db/db mice (setting [3]) of 105 ± 23 mg/dL. Besides, the “Ratio (fat/muscle)” value in the series on db/db mice (single dose part, rosiglitazone 20 mg/kg, total inguinal and retroperitoneal fat/muscle weight) came to 25.4 ± 1.6. The weight gain in the series on db/db mice (single dose part, rosiglitazone, p<0.05 vs vehicle 0.3±0.2 g) worked out at 3.1 ± 0.4 g.

As a reminder, the melting point is the temperature, or range, at which the solid turns liquid. With `NS(=O)(=O)NCC1CCc2ccccc2O1` (centres unmarked) [Compound #10, Chroman-2-ylmethylsulfamide], the melting point fell in the range of 100 to 101 °C.
